Reference: PubChem BioAssay AID330 (DTP/NCI, 2004)
“And” between values parts separate entries of the source, which are not always exact repeats. Equal values may be shown once. Inconclusive results and toxic doses are left out. Rule for the calls: active = survival T/C of 150% or more; inactive = T/C below 125% in these data.

Tested on: P388 leukemia ip, CD2F1 mice, survival T/C
Experiment: NCI In Vivo Anticancer Drug Screen. Data for tumor model P388 Leukemia (intraperitoneal) in CD2F1 (CDF1) mice
Details: endpoint: median survival time, higher = longer survival
In short: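 Mice carrying the transplanted tumor received test compound or vehicle. Survival was recorded in each group, and the value is the treated-group measurement divided by that of the vehicle-treated control group.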

[1] = dose: 50.0 mg/kg/injection, schedule: Q01DX001 (ip), vehicle: saline with Tween-80
[2] = dose: 100.0 mg/kg/injection, schedule: Q01DX001 (ip), vehicle: saline with Tween-80
[3] = dose: 50.0 mg/kg/injection, schedule: Q01DX005 (ip), vehicle: saline with Tween-80
[4] = dose: 100.0 mg/kg/injection, schedule: Q01DX005 (ip), vehicle: saline with Tween-80
[5] = dose: 200.0 mg/kg/injection, schedule: Q01DX005 (ip), vehicle: saline with Tween-80
[6] = dose: 25.0 mg/kg/injection, schedule: Q01DX009 (ip), vehicle: other
[7] = dose: 100.0 mg/kg/injection, schedule: Q01DX009 (ip), vehicle: other
[8] = dose: 50.0 mg/kg/injection, schedule: Q01DX009 (ip), vehicle: saline with Tween-80
[9] = dose: 100.0 mg/kg/injection, schedule: Q01DX009 (ip), vehicle: saline with Tween-80
[10] = dose: 12.5 mg/kg/injection, schedule: Q01DX009 (ip), vehicle: Klucel (hydroxypropylcellulose) (HPC)
[11] = dose: 25.0 mg/kg/injection, schedule: Q01DX009 (ip), vehicle: Klucel (hydroxypropylcellulose) (HPC)
[12] = dose: 200.0 mg/kg/injection, schedule: Q01DX001 (ip), vehicle: saline with Tween-80
[13] = dose: 400.0 mg/kg/injection, schedule: Q01DX001 (ip), vehicle: saline with Tween-80
[14] = dose: 50.0 mg/kg/injection, schedule: Q01DX005 (ip), vehicle: saline
[15] = dose: 50.0 mg/kg/injection, schedule: Q01DX009 (ip), vehicle: Klucel (hydroxypropylcellulose) (HPC)

Measured: T/C

Nc1nc(N)c(Nc2ccc(Cl)cc2)c(Cl)n1
inactive: dose: 25.0 mg/kg/injection, schedule: Q01DX001 (ip), vehicle: saline with Tween-80 102 % of control | [1] 101 % of control | [2] 95 % of control

O=C1C=CC(=O)N1C(=O)NCNC(=O)N1C(=O)C=CC1=O
inactive: dose: 25.0 mg/kg/injection, schedule: Q01DX005 (ip), vehicle: saline with Tween-80 99 % of control and 107 % of control | [3] 103 % of control (2×) and 106 % of control | [4] 103 % of control and 121 % of control

C=C1C(=O)OC2C(OC(=O)CC(C)C)CCCC12 (stereo not given)
inactive: dose: 60.0 mg/kg/injection, schedule: Q01DX005 (ip), vehicle: Klucel (hydroxypropylcellulose) (HPC) 94 % of control | dose: 120.0 mg/kg/injection, schedule: Q01DX005 (ip), vehicle: Klucel (hydroxypropylcellulose) (HPC) 92 % of control | dose: 240.0 mg/kg/injection, schedule: Q01DX005 (ip), vehicle: Klucel (hydroxypropylcellulose) (HPC) 92 % of control

CCN(CC)CCCNCc1cc(-c2ccccc2)nc2cc(Cl)ccc12
inactive: [3] 102 % of control | [4] 100 % of control | [5] 100 % of control

O=N[O-].O=N[O-].[Co].[NH-]CC[NH-].[NH-]CC[NH-]
inactive: dose: 6.25 mg/kg/injection, schedule: Q04DX003 (ip), vehicle: water 98 % of control | dose: 12.5 mg/kg/injection, schedule: Q04DX003 (ip), vehicle: distilled water + Tween-80 96 % of control | dose: 12.5 mg/kg/injection, schedule: Q04DX003 (ip), vehicle: water 101 % of control | dose: 25.0 mg/kg/injection, schedule: Q04DX003 (ip), vehicle: water 102 % of control | dose: 50.0 mg/kg/injection, schedule: Q04DX003 (ip), vehicle: distilled water + Tween-80 99 % of control | dose: 50.0 mg/kg/injection, schedule: Q04DX003 (ip), vehicle: water 96 % of control | dose: 100.0 mg/kg/injection, schedule: Q04DX003 (ip), vehicle: distilled water + Tween-80 108 % of control

C=C(C)COc1ccc(C)cc1
inactive: [6] 108 % of control | dose: 50.0 mg/kg/injection, schedule: Q01DX009 (ip), vehicle: other 104 % of control | [7] 110 % of control

C=CCSc1cccc2ccccc12
inactive: [8] 100 % of control | [9] 109 % of control

CCOC(=O)c1cc(CC)sc1NC(=O)CC(C)=O
inactive: dose: 60.0 mg/kg/injection, schedule: Q01DX005 (ip), vehicle: saline with Tween-80 97 % of control | dose: 120.0 mg/kg/injection, schedule: Q01DX005 (ip), vehicle: saline with Tween-80 100 % of control | dose: 240.0 mg/kg/injection, schedule: Q01DX005 (ip), vehicle: saline with Tween-80 97 % of control

O=c1oc(-c2cccc([N+](=O)[O-])c2)ns1
inactive: dose: 6.25 mg/kg/injection, schedule: Q01DX009 (ip), vehicle: Klucel (hydroxypropylcellulose) (HPC) 101 % of control | [10] 97 % of control | [11] 109 % of control

C=CC1(C)OC(=O)c2cc(C)c(OC)cc21 (stereo not given)
inactive: [1] 100 % of control | [2] 100 % of control | [12] 95 % of control | [13] 94 % of control

Cn1c2c(c3ccccc3c1=O)C(=O)c1cccnc1-2
inactive: [14] 102 % of control | dose: 100.0 mg/kg/injection, schedule: Q01DX005 (ip), vehicle: saline 97 % of control | dose: 200.0 mg/kg/injection, schedule: Q01DX005 (ip), vehicle: saline 105 % of control

CC(CO)(CO)N1C(=O)c2cccc3cc([N+](=O)[O-])cc(c23)C1=O
inactive: [3] 114 % of control | [4] 105 % of control | [5] 107 % of control

Cc1ccc(S(=O)(=O)OCC2(COCc3ccccc3)CCCCC2=O)cc1 (stereo not given)
inactive: [15] 106 % of control | dose: 100.0 mg/kg/injection, schedule: Q01DX009 (ip), vehicle: Klucel (hydroxypropylcellulose) (HPC) 92 % of control | dose: 200.0 mg/kg/injection, schedule: Q01DX009 (ip), vehicle: Klucel (hydroxypropylcellulose) (HPC) 95 % of control

COc1ccc(/C=C(/C#N)c2ccccc2)cc1
inactive: dose: 100.0 mg/kg/injection, schedule: Q04DX003 (ip), vehicle: other 100 % of control | dose: 200.0 mg/kg/injection, schedule: Q04DX003 (ip), vehicle: other 100 % of control | dose: 400.0 mg/kg/injection, schedule: Q04DX003 (ip), vehicle: other 104 % of control

COc1ccc(C/C=N/O)c(OC)c1
inactive: dose: 12.5 mg/kg/injection, schedule: Q01DX009 (ip), vehicle: other 91 % of control | [6] 89 % of control | [7] 93 % of control

CC(=NCCN=C(C)c1cc(C)ccc1O)c1cc(C)ccc1O
inactive: dose: 100.0 mg/kg/injection, schedule: Q04DX002 (ip), vehicle: Klucel (hydroxypropylcellulose) (HPC) 101 % of control | dose: 200.0 mg/kg/injection, schedule: Q04DX002 (ip), vehicle: Klucel (hydroxypropylcellulose) (HPC) 100 % of control | dose: 400.0 mg/kg/injection, schedule: Q04DX002 (ip), vehicle: Klucel (hydroxypropylcellulose) (HPC) 99 % of control

CCOc1cc2c(cc1C(C)c1ccc(OCc3ccccc3)cc1)OCO2 (stereo not given)
inactive: dose: 50.0 mg/kg/injection, schedule: Q01DX005 (ip), vehicle: Klucel (hydroxypropylcellulose) (HPC) 88 % of control | dose: 100.0 mg/kg/injection, schedule: Q01DX005 (ip), vehicle: Klucel (hydroxypropylcellulose) (HPC) 96 % of control | dose: 200.0 mg/kg/injection, schedule: Q01DX005 (ip), vehicle: Klucel (hydroxypropylcellulose) (HPC) 91 % of control

C1CCC([Se][Se]C2CCCC2)C1
inactive: [10] 104 % of control | [11] 110 % of control | [15] 99 % of control and 101 % of control

Clc1ccc2c(c1)C1CN(C2)Cc2ccc(Cl)cc21
inactive: [2] 101 % of control | [12] 87 % of control | [13] 93 % of control

CCOC(=O)c1ccc(NC(=NC)c2ccccc2)cc1
inactive: [8] 108 % of control | [9] 105 % of control | dose: 200.0 mg/kg/injection, schedule: Q01DX009 (ip), vehicle: saline with Tween-80 97 % of control

COC(=O)C(N)CCl (stereo not given)
inactive: dose: 12.5 mg/kg/injection, schedule: Q01DX009 (ip), vehicle: water 91 % of control | dose: 25.0 mg/kg/injection, schedule: Q01DX009 (ip), vehicle: water 92 % of control | dose: 50.0 mg/kg/injection, schedule: Q01DX009 (ip), vehicle: water 90 % of control | dose: 100.0 mg/kg/injection, schedule: Q01DX009 (ip), vehicle: water 99 % of control | dose: 200.0 mg/kg/injection, schedule: Q01DX009 (ip), vehicle: water 90 % of control

N#C/C(=N\NC(=O)c1ccccc1Cl)c1ccccc1Cl
inactive: [3] 97 % of control | [4] 106 % of control

CC(=O)NC(C=O)C(OC(C)C(=O)NC(C)C(=O)NC(CCC(N)=O)C(=O)O)C(OC1OC(CO)C(O)C(O)C1NC(C)=O)C(O)CO (stereo not given)
inactive: dose: 6.25 mg/kg/injection, schedule: Q01DX005 (ip), vehicle: saline 111 % of control | dose: 12.5 mg/kg/injection, schedule: Q01DX005 (ip), vehicle: saline 112 % of control | dose: 25.0 mg/kg/injection, schedule: Q01DX005 (ip), vehicle: saline 112 % of control | [14] 116 % of control
